# Data from article PMC4594923, “Food Polyphenols Fail to Cause a Biologically Relevant Reduction of COX-2 Activity” (PLoS ONE, 2015).
# Marks after values point to notes of the source that are not given here.
# What was measured:
# COX–2 = details: cited from earlier work
# [1] = tested on: arachidonic acid (AA) cascade; experiment: plasma oxylipin/PG levels in LPS induced sepsis in mice; type: in vivo, C57BL/6N mice; details: plasma 24 h after LPS treatment; LPS +; mean;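 note: male C57BL/6N mice given LPS, plasma oxylipins quantified by LC-MS after solid-phase extraction, pretreatment or vehicle given intraperitoneally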
# Text: Twelve week old male C57BL/6N mice (Charles River, Sulzfeld, Germany) were used for all experiments. C57BL/6 male mice (H2^b, 11–13 weeks of age) were obtained from Charles River (Sulzfeld, Germany). Animals were cared for in accordance with the institution’s guidelines for experimental animals and with the guidelines of the American Physiological Society. […] Mice were monitored closely and if they appeared compromised (i.e. inactivity, no intake of food or water) after compound or LPS injection the experiment was terminated.
# Oxylipin levels were analyzed in plasma and tissues by LC-MS following SPE extraction of 200 μl plasma or tissue homogenate (50 mg) on Chromabond C18 ec cartridges (Machery-Nagel, Düren, Germany) [19].
# GraphPad Prism 5.0 (GraphPad Software, San Diego, USA) was used for data analysis, the fitting of dose response curves and calculation of the IC50 values. Statistical differences were determined by Dunnetts test (LPS vs. other groups).
# [2] = tested on: arachidonic acid (AA) cascade; experiment: kidney tissue oxylipin/PG levels in LPS induced sepsis in mice; details: kidney tissue 24 h after LPS treatment, LPS +, mean;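 note: male C57BL/6N mice challenged with LPS, kidney taken 24 h later, oxylipins quantified by LC-MS after solid-phase extraction of tissue homogenate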
# [3] = clinical chemistry in plasma (urea, creatinine, AST, ALT, LDH) in LPS induced sepsis in mice; type: in vivo, C57BL/6N mice; details: compound i. p. 100 mg/kg bw 2 h before LPS, 24 h after LPS
smiles,measurement,setting,value
"O=c1c(-c2ccc(O)cc2)coc2cc(O)cc(O)c12 [Genistein, genistein]","PGE2 formation / levels, RAW 264.7 cells",COX–2,reduced PGE2 formation
same,"1a,1b-dihomo-PGF2α concentration in plasma",[1],0.33 nM
same,"4,5-DiHDPE concentration in plasma",[1],10 nM
same,4-HDHA concentration in plasma,[1],2.0 nM
same,5(6)-EpETrE concentration in plasma,[1],8.9 nM
same,"5,6-DiHETrE concentration in plasma",[1],0.72 nM
same,5-HEPE concentration in plasma,[1],0.33 nM
same,5-HETE concentration in plasma,[1],3.1 nM
same,5-iPF2α concentration in plasma,[1],< 0.50 nM
same,5-oxo-ETE concentration in plasma,[1],1.2 nM
same,6-keto-PGF1α concentration in plasma,[1],2.4 nM
same,"7,8-DiHDPE concentration in plasma",[1],1.1 nM
same,7-HDHA concentration in plasma,[1],0.64 nM
same,8(9)-EpETrE concentration in plasma,[1],2.3 nM
same,"8,9-DiHETrE concentration in plasma",[1],2.1 nM
same,8-HDHA concentration in plasma,[1],4.0 nM
same,8-HEPE concentration in plasma,[1],0.72 nM
same,8-HETE concentration in plasma,[1],9.6 nM
same,8-iPF2a concentration in plasma,[1],0.24 nM
same,9(10)-EpODE concentration in plasma,[1],3.5 nM
same,9(10)-EpOME concentration in plasma,[1],37 nM
same,9(10)-Epoxystearic acid concentration in plasma,[1],31 nM
same,"9,10,13-TriHOME concentration in plasma",[1],1.5 nM
same,"9,10-DiHODE concentration in plasma",[1],4.8 nM
same,"9,10-DiHOME concentration in plasma",[1],63 nM
same,"9,10-Dihydroxystearic acid concentration in plasma",[1],15 nM
same,"9,12,13-TriHOME concentration in plasma",[1],9.6 nM
same,9-HODE concentration in plasma,[1],96 nM
same,9-HOTrE concentration in plasma,[1],4.1 nM
same,9-oxo-ODE concentration in plasma,[1],16 nM
same,10(11)-EpDPE concentration in plasma,[1],3.0 nM
same,"10,11-DiHDPE concentration in plasma",[1],0.90 nM
same,10-HDHA concentration in plasma,[1],16 nM
same,11(12)-EpETrE concentration in plasma,[1],2.7 nM
same,"11,12-DiHETE concentration in plasma",[1],0.19 nM
same,"11,12-DiHETrE concentration in plasma",[1],1.9 nM
same,11-HDHA concentration in plasma,[1],1.2 nM
same,11-HETE concentration in plasma,[1],2.7 nM
same,12(13)-EpODE concentration in plasma,[1],1.8 nM
same,12(13)-EpOME concentration in plasma,[1],34 nM
same,"12,13-DiHODE concentration in plasma",[1],4.7 nM
same,"12,13-DiHOME concentration in plasma",[1],214 nM
same,12-HEPE concentration in plasma,[1],140 nM
same,12-HETE concentration in plasma,[1],1200 nM
same,13(14)-EpDPE concentration in plasma,[1],2.0 nM
same,"13,14-DiHDPE concentration in plasma",[1],0.96 nM
same,"13,14-dihydro-15-keto-PGE1 concentration in plasma",[1],0.18 nM
same,"13,14dihydro-15-keto-PGF2α concentration in plasma",[1],0.43 nM
same,13-HDHA concentration in plasma,[1],2.8 nM
same,13-HODE concentration in plasma,[1],240 nM
same,13-HOTrE concentration in plasma,[1],15 nM
same,13-oxo-ODE concentration in plasma,[1],2.7 nM
same,14(15)-EpETE concentration in plasma,[1],0.21 nM
same,14(15)-EpETrE concentration in plasma,[1],2.0 nM
same,"14,15-DiHETE concentration in plasma",[1],0.41 nM
same,"14,15-DiHETrE concentration in plasma",[1],4.3 nM
same,14-HDHA concentration in plasma,[1],450 nM
same,15(16)-EpODE concentration in plasma,[1],2.0 nM
same,15(S)-HETrE concentration in plasma,[1],2.7 nM
same,"15,16-DiHODE concentration in plasma",[1],40 nM
same,15-HEPE concentration in plasma,[1],0.96 nM
same,15-HETE concentration in plasma,[1],5.1 nM
same,15-oxo-ETE concentration in plasma,[1],0.42 nM
same,16(17)-EpDPE concentration in plasma,[1],2.1 nM
same,"16,17-DiHDPE concentration in plasma",[1],2.2 nM
same,16-HDHA concentration in plasma,[1],1.9 nM
same,17(18)-EpETE concentration in plasma,[1],1.2 nM
same,"17,18-DiHETE concentration in plasma",[1],2.3 nM
same,17-HDHA concentration in plasma,[1],21 nM
same,18-HEPE concentration in plasma,[1],0.45 nM
same,19(20)-EpDPE concentration in plasma,[1],14 nM
same,"19,20-DiHDPE concentration in plasma",[1],19 nM
same,20-HDHA concentration in plasma,[1],3.7 nM
same,20-HEPE concentration in plasma,[1],2.8 nM
same,20-HETE concentration in plasma,[1],1.7 nM
same,EKODE concentration in plasma,[1],9.9 nM
same,PGD2 concentration in plasma,[1],< 0.50 nM
same,PGE2 concentration in plasma,[1],0.95 nM
same,PGF1α concentration in plasma,[1],0.13 nM
same,PGF2α concentration in plasma,[1],0.44 nM
same,TXB2 concentration in plasma,[1],2.6 nM
same,"1a,1b-dihomo-PGF2α",[2],1.9 nM
same,"4,5-DiHDPE",[2],15 nM
same,4-HDHA,[2],28^† nM
same,5(6)-EpETrE,[2],140^† nM
same,"5,6-DiHETrE",[2],1.8^† nM
same,5-HEPE,[2],1.3 nM
same,5-HETE,[2],15^† nM
same,5-oxo-ETE,[2],45 nM
same,6-keto-PGF1α,[2],61 nM
same,"7,8-DiHDPE",[2],2.0^* nM
same,7-HDHA,[2],4.0^* nM
same,8(9)-EpETrE,[2],34^‡ nM
same,"8,9-DiHETrE",[2],1.9 nM
same,8-HDHA,[2],23^‡ nM
same,8-HETE,[2],4.9 nM
same,8-iPF2a,[2],2.0 nM
same,9(10)-EpODE,[2],14 nM
same,9(10)-EpOME,[2],170^* nM
same,9(10)-Epoxystearic acid,[2],75^* nM
same,"9,10,13-TriHOME",[2],4.3 nM
same,"9,10-DiHODE",[2],1.6 nM
same,"9,10-DiHOME",[2],31 nM
same,"9,10-Dihydroxystearic acid",[2],50 nM
same,"9,12,13-TriHOME",[2],24 nM
same,9-HETE,[2],4.3^† nM
same,9-HODE,[2],280 nM
same,9-HOTrE,[2],5.0 nM
same,9-oxo-ODE,[2],65 nM
same,10(11)-EpDPE,[2],71^† nM
same,"10,11-DiHDPE",[2],2.4 nM
same,10-HDHA,[2],4.3 nM
same,11(12)-EpETE,[2],4.0 nM
same,11(12)-EpETrE,[2],82^† nM
same,"11,12-DiHETrE",[2],2.8 nM
same,11-HDHA,[2],7.7^† nM
same,11-HETE,[2],18 nM
same,12(13)-EpODE,[2],8.1^* nM
same,12(13)-EpOME,[2],120^* nM
same,"12,13-DiHOME",[2],78 nM
same,12-HEPE,[2],2.2 nM
same,12-HETE,[2],21 nM
same,13(14)-EpDPE,[2],56^† nM
same,"13,14-DiHDPE",[2],5.0 nM
same,"13,14-dihydro-15-keto-PGF2α",[2],3.1 nM
same,13-HDHA,[2],9.1^* nM
same,13-HODE,[2],230 nM
same,13-HOTrE,[2],6.0 nM
same,13-oxo-ODE,[2],11 nM
same,14(15)-EpETE,[2],4.7^† nM
same,14(15)-EpETrE,[2],57^* nM
same,"14,15-DiHETE",[2],1.1 nM
same,"14,15-DiHETrE",[2],8.5 nM
same,14-HDHA,[2],14 nM
same,15(16)-EpODE,[2],56^† nM
same,15(S)-HETrE,[2],6.4 nM
same,"15,16-DiHODE",[2],26 nM
same,15-HETE,[2],31^* nM
same,15-oxo-ETE,[2],12^* nM
same,16(17)-EpDPE,[2],52^† nM
same,"16,17-DiHDPE",[2],15 nM
same,16-HDHA,[2],9.1 nM
same,17(18)-EpETE,[2],5.7^† nM
same,"17,18-DiHETE",[2],4.4 nM
same,17-HDHA,[2],22 nM
same,18-HEPE,[2],2.0^* nM
same,19(20)-EpDPE,[2],88^† nM
same,"19,20-DiHDPE",[2],100 nM
same,20-HDHA,[2],25^* nM
same,20-HEPE,[2],5.9 nM
same,EKODE,[2],58 nM
same,PGD2,[2],9.6 nM
same,PGE1,[2],6.3 nM
same,PGE2,[2],110 nM
same,PGF1α,[2],3.7 nM
same,PGF2α,[2],40 nM
same,TXB2,[2],3.2^* nM
same,"5,6-DiHETE",[2]; < = below LOQ,< 0.25 nM
same,5-iPF2α,[2]; < = below LOQ,< 1.0 nM
same,8(9)-EpETE,[2]; < = below LOQ,2.8^† nM
same,"12,13-DiHODE",[2]; < = below LOQ,< 2.0 nM
same,"13,14-dihydro-15-keto-PGE1",[2]; < = below LOQ,0.5 nM
same,20-HETE,[2]; < = below LOQ,< 2.7 nM
same,PGD1,[2]; < = below LOQ,< 0.50 nM
same,PGF2α,[2]; second listing of PGF2α (r9),40 nM
same,plasma ALT activity,[3],elevated
same,plasma AST activity,[3],elevated
